Experimental data published in PubChem BioAssay (NCI).
Several values for one entry are separate records, joined by “and”; a condition that tells them apart may be missing. Equal entries are not always repeated.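 Cells were grown in 96-well plates and exposed to each compound for 48 hours at five concentrations; endpoints were interpolated linearly between bracketing concentrations, or set to the highest concentration if not reached. Abbreviation: GI50, concentration required for 50% inhibition of growth. TGI: concentration producing complete growth inhibition.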

Assays:
Assay in all cases: growth of human tumour cells (NCI), 48 h
OVCAR-3 ovarian = system: OVCAR-3 ovarian
NCI-H522 lung = system: NCI-H522 lung
SNB-75 CNS = system: SNB-75 CNS
T-47D breast = system: T-47D breast
NCI-H23 lung = system: NCI-H23 lung
786-0 renal = system: 786-0 renal
SK-MEL-2 melanoma = system: SK-MEL-2 melanoma
SF-268 CNS = system: SF-268 CNS
SR leukemia = system: SR leukemia
HOP-92 NSCLC = system: HOP-92 NSCLC

Structure (SMILES)	GI50 (OVCAR-3 ovarian)	TGI (OVCAR-3 ovarian)	GI50 (NCI-H522 lung)	TGI (NCI-H522 lung)	GI50 (SNB-75 CNS)	TGI (SNB-75 CNS)	GI50 (T-47D breast)	TGI (T-47D breast)	GI50 (NCI-H23 lung)	TGI (NCI-H23 lung)	GI50 (786-0 renal)	TGI (786-0 renal)	GI50 (SK-MEL-2 melanoma)	TGI (SK-MEL-2 melanoma)	GI50 (SF-268 CNS)	TGI (SF-268 CNS)	GI50 (SR leukemia)	TGI (SR leukemia)	GI50 (HOP-92 NSCLC)	TGI (HOP-92 NSCLC)
COc1cc(Cl)cc(-c2nn(-c3cccc(NC(=O)Nc4cc(C(F)(F)F)cc(C(F)(F)F)c4)c3)cc2-c2ccncc2)c1	0.364 µM	2.04 µM	0.302 µM	1.32 µM	1.18 µM	6.86 µM	0.476 µM	6.27 µM	0.332 µM	2.01 µM	0.821 µM	2.64 µM	0.454 µM	1.91 µM	0.645 µM	4.35 µM	0.439 µM	3.51 µM	0.228 µM	0.783 µM
O=P(CCCCP(=O)(c1ccccc1)c1ccccc1)(c1ccccc1)c1ccccc1.[Cl][Sn]([Cl])([c]1ccccc1)[c]1ccccc1	1.61 µM	3.99 µM	0.0514 µM	0.208 µM	1.57 µM	3.29 µM	0.073 µM	0.415 µM	1.48 µM	3.48 µM	1.07 µM	2.48 µM	1.74 µM	3.39 µM	1.75 µM	4.05 µM	1.78 µM	> 100 µM	1.56 µM	3.18 µM
Nc1nc(N)c2c(n1)NC(c1ccc(F)cc1)C1CCc3ccccc3C1=N2 (centres undefined)	4.15 µM	16.1 µM	5.66 µM	21.2 µM	11.3 µM	23.8 µM	3.86 µM	17.7 µM	4.06 µM	16.6 µM	6.9 µM	20.1 µM	5.73 µM	19.6 µM	8.64 µM	23.7 µM	1.65 µM	4.14 µM	1.17 µM	6.59 µM
NC1=C(c2nc(-c3ccccc3)cs2)C(c2ccc(Br)cc2)c2c(c3ccccc3oc2=O)O1 (centres undefined)	> 150 µg/mL	> 150 µg/mL	47.1 µg/mL	> 150 µg/mL	2.39 µg/mL	36.7 µg/mL	44.3 µg/mL	> 150 µg/mL	71 µg/mL	> 150 µg/mL	75.6 µg/mL	> 150 µg/mL	89 µg/mL	> 150 µg/mL	89.7 µg/mL	> 150 µg/mL	55.2 µg/mL	> 150 µg/mL	38.4 µg/mL	102 µg/mL
O=C(c1ccccc1)C(Br)C(Br)c1cccc([N+](=O)[O-])c1 (centres undefined)	1.61 µM	2.96 µM	1.11 µM	2.57 µM	6.48 µM	19.8 µM	2.13 µM	5.65 µM	2.25 µM	6.45 µM	1.61 µM	3.07 µM	3.03 µM	8.48 µM	2.47 µM	6.77 µM	1.2 µM	4.53 µM	1.55 µM	3.89 µM
COC(=O)CCC1CCC(c2cc(F)ccc2F)(S(=O)(=O)c2ccc(Cl)cc2)CC1 (centres undefined)	83.7 µM	> 100 µM	62.4 µM	> 100 µM	> 100 µM	> 100 µM	39.3 µM	> 100 µM	42.5 µM	> 100 µM	> 100 µM	> 100 µM	62 µM	> 100 µM	> 100 µM	> 100 µM	> 100 µM	> 100 µM	15.4 µM	> 100 µM
Oc1[nH]c2c(Br)cccc2c1C1=Nc2ccccc2/C1=N/OCCN1CCCC1	1.48 µM	3.45 µM	0.847 µM	3.4 µM	1.14 µM	3.64 µM	3.51 µM	–	1.02 µM and 0.959 µM	4.17 µM and 36.5 µM	0.648 µM and 0.942 µM	2.58 µM and 4.31 µM	2.21 µM	–	0.813 µM	–	0.373 µM	1.77 µM	1.04 µM	3.12 µM
Cc1cc(NCc2cc(Nc3ccnc4cc(Cl)ccc34)ccc2F)nc(N2CCN(C)CC2)n1	1.76 µM	3.83 µM	2.22 µM	4.79 µM	1.21 µM	3.16 µM	2.1 µM	6.13 µM	2.1 µM	6.54 µM	1.44 µM	2.88 µM	2.03 µM	3.93 µM	1.81 µM	4.53 µM	0.245 µM	1.03 µM	1.35 µM	3.52 µM
COc1cccc2c1C(=O)c1c(O)c3c(c(O)c1C2=O)C[C@@](O)(C(=O)CO)C[C@@H]3O[C@H]1C[C@H](N)[C@@H](O)[C@H](C)O1	0.613 µM	13.4 µM	0.101 µM	0.89 µM	0.084 µM	0.634 µM	0.128 µM	3.19 µM	0.122 µM	0.953 µM	0.123 µM	1.86 µM	0.514 µM	3.09 µM	0.196 µM	2.08 µM	0.0137 µM	1.07 µM	0.0743 µM	0.697 µM
CN(C)CC1C(=O)O[C@H]2[C@H]1CC/C(COC(=O)c1cc3ccccc3[nH]1)=C\CC[C@@]1(C)O[C@@H]21 (some centres undefined)	0.672 µM	1.76 µM	1.32 µM	3.05 µM	2.18 µM	10.4 µM	2.19 µM	5.54 µM	2.39 µM	8.3 µM	1.69 µM	4.88 µM	1.98 µM	5.51 µM	1.65 µM	3.43 µM	1.55 µM	9.89 µM	1.53 µM	3.62 µM
CC(C)c1c(O)ccc2c1CCC1C(C)(C)CCCC21C (centres undefined)	–	34.1 µM	–	34.6 µM	–	33.1 µM	–	5.75 µM	–	31.8 µM	–	32.2 µM	–	31.9 µM	–	35.5 µM	–	40.5 µM	–	32.8 µM
Oc1ccccc1CNCC12CC3CC(CC(C3)C1)C2	57.5 µM	> 100 µM	–	–	34.9 µM	> 100 µM	20.1 µM	44.6 µM	32.4 µM	> 100 µM	16.2 µM	33.5 µM	20.2 µM	41.2 µM	46.8 µM	> 100 µM	20.4 µM	58.6 µM	9.64 µM	37.9 µM
CCN1C(=O)N(c2ccccc2)C2NC(=S)N(/N=C/C=C/c3ccccc3)C21 (centres undefined)	0.263 µM	–	0.133 µM	6.6 µM	> 100 µM	> 100 µM	0.405 µM	> 100 µM	0.569 µM	> 100 µM	0.521 µM	> 100 µM	0.345 µM	> 94.2 µM	1.02 µM	> 100 µM	0.114 µM	> 100 µM	4.66 µM	> 100 µM
COc1cc(/C=C/C(=O)c2c(C)nc3ccccc3c2/C=C/c2ccc(C)cc2)cc(OC)c1OC	1.76 µM	3.23 µM	1.83 µM	5.56 µM	1.47 µM	4.82 µM	2.49 µM	> 100 µM	1.72 µM	3.8 µM	1.95 µM	3.81 µM	2.11 µM	5.05 µM	2.21 µM	6.42 µM	2 µM	9.11 µM	1.61 µM	3.9 µM
COc1cc(/C=N/NC(=O)c2cnn3c2NC(c2ccccc2)C3)ccc1Oc1ccccc1 (centres undefined)	0.346 µM	1.31 µM	0.366 µM	2.62 µM	1.3 µM	3.41 µM	0.998 µM	16.9 µM	1.63 µM	10.8 µM	1.19 µM	5.65 µM	1.14 µM	4.89 µM	2.46 µM	14.6 µM	0.488 µM	10 µM	2.06 µM	8.58 µM
Cc1ccc2c(c1)C(C)Cc1c(Cl)ncnc1N2C (centres undefined)	2.26 µM	5.4 µM	2.67 µM	8.03 µM	0.394 µM	22.5 µM	6.9 µM	65 µM	3.29 µM	22.7 µM	3.25 µM	17.8 µM	3.03 µM	8.1 µM	2.5 µM	13.8 µM	3.53 µM	> 100 µM	2.92 µM	8.5 µM
COc1ccc(-n2cc(-c3cc(OC)c(OC)c(OC)c3)nc2SCc2ccccc2)cc1OC	> 100 µM	> 100 µM	41.8 µM	> 100 µM	34.4 µM	> 100 µM	12.3 µM	> 100 µM	> 100 µM	> 100 µM	> 100 µM	> 100 µM	> 100 µM	> 100 µM	> 100 µM	> 100 µM	44.1 µM	> 100 µM	6.45 µM	> 29.5 µM
Nc1c([N+](=O)[O-])cc2c3c(cccc13)CC2	–	> 100 µM	–	> 100 µM	–	> 100 µM	–	> 100 µM	–	> 100 µM	–	> 100 µM	–	> 100 µM	–	> 100 µM	–	> 100 µM	–	> 100 µM
CNC(=O)CC1NC(=O)c2csc(n2)-c2ccc(-c3nc(C4=NC(C(=O)N5CCCC5C(N)=O)CO4)cs3)nc2-c2csc(n2)-c2csc(n2)C(C(C)C)NC(=O)CNC(=O)c2csc(n2)C(C(C)C)NC(=O)c2nc1sc2C (centres undefined)	–	0.937 µM	–	–	> 25 µM	–	> 25 µM	> 25 µM	> 25 µM	–	> 25 µM	> 25 µM	–	–	> 25 µM	> 25 µM	< 0.001 µM	–	> 25 µM	> 25 µM
Cc1cc(=O)[nH]c2cc3c(c4c(n3Cc3ccc(Cl)cc3Cl)CC(C)(C)CC4=O)c(O)c12	> 100 µM	> 100 µM	> 100 µM	> 100 µM	24.6 µM	59.8 µM	> 100 µM	> 100 µM	39.6 µM	> 100 µM	0.0145 µM	0.134 µM	> 100 µM	> 100 µM	76.1 µM	> 100 µM	25.2 µM	> 100 µM	54.2 µM	> 100 µM
COC(=O)C1=C(C(=O)OC)SC(=C(Cl)C(=S)Nc2ccccc2O)S1	7.41 µM	22.8 µM	10.3 µM	23.3 µM	33.7 µM	> 50 µM	17 µM	> 50 µM	6.67 µM	20.1 µM	0.686 µM	10.1 µM	10.3 µM	22.2 µM	10.2 µM	23.6 µM	26.1 µM	> 50 µM	40 µM	> 50 µM
COc1ccc(C(=O)/C=C/c2ccc3c(c2)OCO3)c(OCc2ccccc2)c1	–	> 100 µM	–	> 100 µM	–	> 100 µM	–	> 100 µM	–	> 100 µM	–	> 100 µM	–	> 100 µM	–	> 100 µM	–	> 27.1 µM	–	> 100 µM
CC(C)COCC(CN(Cc1ccccc1)c1ccccc1)N1CCCC1 (centres undefined)	3.15 µM	12.1 µM	1.61 µM	3.35 µM	3.47 µM	17.6 µM	1.74 µM	6.49 µM	2.82 µM	14.6 µM	3.46 µM	12.8 µM	2.73 µM	8 µM	4.01 µM	16.1 µM	2.08 µM	5.34 µM	1.66 µM	6.88 µM
Cc1cc2[nH]c(=O)c3c4ccccc4cn3c2cc1C	14 µM	28.5 µM	14.5 µM	31.1 µM	15.5 µM	30.4 µM	15.4 µM	50 µM	14.9 µM	32.2 µM	10.7 µM	22.7 µM	18.1 µM	34.8 µM	15.3 µM	32.4 µM	2.6 µM	5.75 µM	15.4 µM	30.2 µM
COc1cc(-n2cc(-c3ccc(Cl)cc3)nc2SCc2cccc(C#N)c2)cc(OC)c1OC	50.3 µM	> 100 µM	47 µM	> 100 µM	0.433 µM	9.77 µM	21.4 µM	> 100 µM	37.5 µM	> 100 µM	25.1 µM	92.5 µM	–	–	39.4 µM	> 100 µM	> 100 µM	> 100 µM	18.8 µM	86.5 µM
